From PubChem BioAssay AID330 (DTP/NCI, 2004)
Values joined by “and” are separate entries in the source; they are usually repeats but may differ in a detail not shown here. Equal values may be shown once. Toxic doses and inconclusive results are not listed. How the source made its calls: active means survival T/C of 150% or more; inactive means T/C below 125% in these data.

Test system: P388 leukemia ip, CD2F1 mice, survival T/C
Test: NCI In Vivo Anticancer Drug Screen. Data for tumor model P388 Leukemia (intraperitoneal) in CD2F1 (CDF1) mice
Details: endpoint: median survival time, higher = longer survival
Summary of the method: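 Mice carrying the transplanted tumor received test compound or vehicle. Survival was recorded in each group, and the value is the treated-group measurement divided by that of the vehicle-treated control group.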

[1] = dose: 100.0 mg/kg/injection, schedule: Q01DX001 (ip), vehicle: saline with Tween-80
[2] = dose: 200.0 mg/kg/injection, schedule: Q01DX001 (ip), vehicle: saline with Tween-80
[3] = dose: 50.0 mg/kg/injection, schedule: Q01DX005 (ip), vehicle: saline with Tween-80
[4] = dose: 100.0 mg/kg/injection, schedule: Q01DX005 (ip), vehicle: saline with Tween-80
[5] = dose: 100.0 mg/kg/injection, schedule: Q04DX002 (ip), vehicle: saline with Tween-80
[6] = dose: 200.0 mg/kg/injection, schedule: Q04DX002 (ip), vehicle: saline with Tween-80
[7] = dose: 400.0 mg/kg/injection, schedule: Q04DX002 (ip), vehicle: saline with Tween-80
[8] = dose: 60.0 mg/kg/injection, schedule: Q01DX005 (ip), vehicle: saline with Tween-80
[9] = dose: 120.0 mg/kg/injection, schedule: Q01DX005 (ip), vehicle: saline with Tween-80
[10] = dose: 240.0 mg/kg/injection, schedule: Q01DX005 (ip), vehicle: saline with Tween-80
[11] = dose: 12.5 mg/kg/injection, schedule: Q01DX009 (ip), vehicle: saline
[12] = dose: 25.0 mg/kg/injection, schedule: Q01DX009 (ip), vehicle: saline
[13] = dose: 200.0 mg/kg/injection, schedule: Q01DX005 (ip), vehicle: saline with Tween-80
[14] = dose: 12.5 mg/kg/injection, schedule: Q01DX009 (ip), vehicle: saline with Tween-80
[15] = dose: 25.0 mg/kg/injection, schedule: Q01DX009 (ip), vehicle: saline with Tween-80
[16] = dose: 50.0 mg/kg/injection, schedule: Q01DX009 (ip), vehicle: saline with Tween-80
[17] = dose: 100.0 mg/kg/injection, schedule: Q01DX009 (ip), vehicle: saline with Tween-80

Measured: T/C

COc1cc2ccccc2c2c1OP(=O)(O)Oc1c(OC)cc3ccccc3c1-2
inactive: [1] 100 % of control | [2] 92 % of control | dose: 400.0 mg/kg/injection, schedule: Q01DX001 (ip), vehicle: saline with Tween-80 114 % of control

C=CCc1cccc2cc(C(=O)OCCCN(CC)CC)c(=O)oc12
inactive: [3] 95 % of control | [4] 99 % of control

Cc1cc(CN2CCN(CCO)CC2)c(O)c(CN2CCN(CCO)CC2)c1
inactive: dose: 60.0 mg/kg/injection, schedule: Q01DX005 (ip), vehicle: saline 105 % of control | dose: 120.0 mg/kg/injection, schedule: Q01DX005 (ip), vehicle: saline 102 % of control

N#C/C(=C/c1cc(Br)c2c(c1)OCO2)C(N)=O
inactive: [5] 100 % of control | [6] 98 % of control | [7] 97 % of control

O=C1c2ccccc2C(=O)N1C1Cc2nc3ccccc3n2C1=O (centres undefined)
inactive: [8] 98 % of control | [9] 93 % of control | [10] 89 % of control

Cc1cc2ccccc2c[n+]1[O-]
inactive: dose: 50.0 mg/kg/injection, schedule: Q01DX005 (ip), vehicle: Klucel (hydroxypropylcellulose) (HPC) 97 % of control | dose: 100.0 mg/kg/injection, schedule: Q01DX005 (ip), vehicle: Klucel (hydroxypropylcellulose) (HPC) 112 % of control

CC=C=CCN(C)Cc1ccccc1
inactive: dose: 6.25 mg/kg/injection, schedule: Q01DX009 (ip), vehicle: saline 107 % of control | [11] 94 % of control | [12] 109 % of control | dose: 50.0 mg/kg/injection, schedule: Q04DX003 (ip), vehicle: Klucel (hydroxypropylcellulose) (HPC) 108 % of control | dose: 100.0 mg/kg/injection, schedule: Q04DX003 (ip), vehicle: Klucel (hydroxypropylcellulose) (HPC) 88 % of control

O=C(CN1CCCC1)Nc1nc(-c2ccc(Cl)cc2)cs1
inactive: [3] 96 % of control | [4] 100 % of control | [13] 91 % of control

Cc1cc(O)c2c(O)c(-c3ccc4cc(C)cc(O)c4c3O)ccc2c1
inactive: dose: 50.0 mg/kg/injection, schedule: Q01DX009 (ip), vehicle: saline 104 % of control | dose: 100.0 mg/kg/injection, schedule: Q01DX009 (ip), vehicle: saline 112 % of control

Nc1nc(N)c(N=O)c(Nc2cccc(Br)c2)n1
inactive: [14] 99 % of control | [15] 99 % of control | [16] 90 % of control | [17] 91 % of control

COC(SC)(SC)c1cc(-c2c(Cl)cccc2Cl)no1
inactive: [8] 101 % of control | [9] 101 % of control | [10] 103 % of control

CC(=O)O[C@H]1C(=O)C=C[C@H](C)[C@@H]2CC[C@H](OC(C)(C)C)[C@@]12C
inactive: [3] 102 % of control | [4] 98 % of control | [13] 108 % of control

O=C1Cn2c(c3c(nc2=O)CCCC3)N1
inactive: [8] 100 % of control | [9] 99 % of control | [10] 100 % of control

O=[N+]([O-])c1ccc(NN=NCCF)cc1
inactive: dose: 0.44 mg/kg/injection, schedule: Q01DX005 (ip), vehicle: other 102 % of control and 94 % of control | dose: 0.88 mg/kg/injection, schedule: Q01DX005 (ip), vehicle: other 102 % of control and 94 % of control | dose: 1.75 mg/kg/injection, schedule: Q01DX005 (ip), vehicle: other 105 % of control and 124 % of control and 94 % of control | dose: 3.5 mg/kg/injection, schedule: Q01DX005 (ip), vehicle: other 100 % of control and 106 % of control and 94 % of control | dose: 7.0 mg/kg/injection, schedule: Q01DX005 (ip), vehicle: other 109 % of control

COc1ccccc1N=C(C1=C(O)c2ccccc2C1=O)c1ccccc1
inactive: [5] 100 % of control | [6] 102 % of control | [7] 94 % of control

CC(=NCCN=C(C)c1ccccc1O)c1ccccc1O
inactive: dose: 50.0 mg/kg/injection, schedule: Q01DX009 (ip), vehicle: Klucel (hydroxypropylcellulose) (HPC) 105 % of control | dose: 100.0 mg/kg/injection, schedule: Q01DX009 (ip), vehicle: Klucel (hydroxypropylcellulose) (HPC) 114 % of control | dose: 200.0 mg/kg/injection, schedule: Q01DX009 (ip), vehicle: Klucel (hydroxypropylcellulose) (HPC) 115 % of control

FC(F)(F)c1cc(NC(=S)SCc2ccc3c(c2)OCO3)ccc1Cl
inactive: dose: 50.0 mg/kg/injection, schedule: Q01DX009 (ip), vehicle: suspension in saline 100 % of control | dose: 100.0 mg/kg/injection, schedule: Q01DX009 (ip), vehicle: suspension in saline 100 % of control | dose: 200.0 mg/kg/injection, schedule: Q01DX009 (ip), vehicle: suspension in saline 100 % of control

COc1cc(C2c3cc4c(cc3OC3(N5CCCC5)CCCC23)OCO4)cc(OC)c1OC (centres undefined)
inactive: dose: 60.0 mg/kg/injection, schedule: Q01DX005 (ip), vehicle: Klucel (hydroxypropylcellulose) (HPC) 96 % of control | dose: 120.0 mg/kg/injection, schedule: Q01DX005 (ip), vehicle: Klucel (hydroxypropylcellulose) (HPC) 97 % of control | dose: 240.0 mg/kg/injection, schedule: Q01DX005 (ip), vehicle: Klucel (hydroxypropylcellulose) (HPC) 96 % of control

O=C1c2cccc3cccc(c23)C(=O)N1CCNCCN1C(=O)c2cccc3cccc(c23)C1=O
inactive: [8] 91 % of control | [10] 88 % of control

CC(CC(=O)c1ccccc1)=NCCCN=C(C)CC(=O)c1ccccc1
inactive: [16] 112 % of control | [17] 96 % of control | dose: 200.0 mg/kg/injection, schedule: Q01DX009 (ip), vehicle: saline with Tween-80 96 % of control

Cn1c2ccccc2c(=O)c2cc(NC(=O)CCCC(=O)Nc3ccc4c(c3)c(=O)c3ccccc3n4C)ccc21
inactive: [3] 98 % of control | [4] 99 % of control | [13] 101 % of control

O=C1Nc2ccccc2C1NC(=S)Nc1ccc(Cl)cc1 (centres undefined)
inactive: [1] 87 % of control | [2] 86 % of control

O=C(O)C1=COC(OC2OC(CO)C(O)C(O)C2O)C2C(CO)=CCC12 (centres undefined)
inactive: dose: 5.0 mg/kg/injection, schedule: Q01DX009 (ip), vehicle: saline with Tween-80 99 % of control and 108 % of control | dose: 10.0 mg/kg/injection, schedule: Q01DX009 (ip), vehicle: saline with Tween-80 108 % of control and 96 % of control | dose: 20.0 mg/kg/injection, schedule: Q01DX009 (ip), vehicle: saline with Tween-80 99 % of control and 104 % of control | dose: 40.0 mg/kg/injection, schedule: Q01DX009 (ip), vehicle: saline with Tween-80 95 % of control | dose: 80.0 mg/kg/injection, schedule: Q01DX009 (ip), vehicle: saline with Tween-80 99 % of control

c1ccc(C23CN(Cc4ccccc42)Cc2ccccc23)cc1
inactive: [1] 95 % of control | [2] 88 % of control

O=C1CS(=O)(=O)C(c2ccc(F)cc2)N1N1C(=O)CS(=O)(=O)C1c1ccc(F)cc1 (centres undefined)
inactive: [8] 91 % of control | [9] 93 % of control | [10] 93 % of control

CC(C)Cc1cn(O)c2nc(=N)nc(N)c-2n1
inactive: [14] 100 % of control | [15] 93 % of control | [16] 101 % of control

CCOC(=O)[n+]1ccc(-c2cc[n+](C(=O)OCC)cc2)cc1
inactive: [11] 88 % of control | [12] 91 % of control

CC(C)C12CCC3(C)CCC1(C)CCC32O (centres undefined)
inactive: dose: 12.0 mg/kg/injection, schedule: Q01DX009 (ip), vehicle: Klucel (hydroxypropylcellulose) (HPC) 111 % of control | dose: 24.0 mg/kg/injection, schedule: Q01DX009 (ip), vehicle: Klucel (hydroxypropylcellulose) (HPC) 96 % of control | dose: 48.0 mg/kg/injection, schedule: Q01DX009 (ip), vehicle: Klucel (hydroxypropylcellulose) (HPC) 96 % of control | dose: 96.0 mg/kg/injection, schedule: Q01DX009 (ip), vehicle: Klucel (hydroxypropylcellulose) (HPC) 111 % of control
